Data published in US12263248B2, “Compounds and compositions for intracellular delivery of therapeutic agents” (ModernaTX, Inc., priority 2018, dated 2025).

Experiments:
[1] = Lipid clearance: lipid level in mouse liver tissue (LC-MS/MS); assay type: in vivo
Protocol: Quantification of Lipid by LC-MS/MS: Liver samples were homogenized following addition of 19 eq. (w/v) of water (DF=20). Protein was precipitated and analyzed against calibration standards prepared in matching blank. Chromatographic separation and quantification was accomplished with a LC-MS/MS System. Samples were injected and separated via HPLC A triple-quadrupole MS/MS system operated in positive ion mode was used for signal detection.

hEPO mRNA [2] = assay: hEPO expression after intravenous administration to rats; assay type: in vivo, rat; conditions: for Lipid/MC3 hEPO expression: 6 hours after administration; for hEPO expression / hEPO expression 0.25 h / hEPO expression 0.5 h / hEPO expression 1 h / hEPO expression 2 h / hEPO expression 4 h / hEPO expression 8 h / hEPO expression 24 h / hEPO expression 48 h: rat; for Lipid/MC3 hEPO conc. ratio 2 mpk / Lipid/MC3 hEPO conc. ratio 0.2 mpk: rats
Procedure, shortened: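 Rats dosed intravenously once with nanoparticle composition, 0.2 or 2.0 mpk, formulated by the standard MC3 method. Tail-vein blood sampled at 6 h or at time points from 0.25 to 48 h. hEPO measured by ELISA.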

IP-10 = assay: Cytokine induction in rats after intravenous administration; assay type: in vivo, rat; conditions: for IP-10: rats, 2.0 mpk, 6 hours, hEPO nanoparticle compositions; for IP-10 induction: rat, 48 hours after administration
Protocol: The expression of hEPO and cytokine induction in rats intravenously administered a nanoparticle composition at a dose of 2.0 mpk was measured at 6 h.
Table 19A summarizes the hEPO expression, IP-10 induction, liver and spleen levels, and alanine aminotransferase (ALT) and aspartate aminotransferase (AST) measured upon intravenous administration of formulations including Compounds 48, 49, and 50 to rat at 0.2 and 2 mpk and hEPO mRNA. hEPO concentrations were measured 6 hours after administration, while cytokine induction and liver and spleen levels were measured 48 hours after administration. hEPO and IP-10 concentrations are presented in pg/ml, while liver levels are provided in ng/g. ALT and AST levels are presented in international units.

hEPO mRNA [3] = assay: hEPO expression after subcutaneous administration to mice; assay type: in vivo, female CD-1 mice; conditions: for Novel lipid/MC3 expression ratio, 6 hr. time point, s.c. hEPO 0.5 mpk: relative to MC3
Procedure, shortened: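 Lipid nanoparticle formulations carrying hEPO or luciferase mRNA were given subcutaneously at 0.5 mpk to female CD-1 mice. Whole-body luminescence imaging was done at 3, 6 and 24 h. Liver, spleen and injection-site expression were assessed ex vivo at 24 h.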

[4] = Chemical stability of lipids in ethanol (lipid purity); assay type: physicochemical
Protocol: Ester linkages were previously reported to trigger metabolism by esterases in vivo. (See Fukami, T. et al. Drug Metab. Pharmacokinet. 2012, 27, 466-477, the content of which is incorporated by reference herein in its entirety). […] (See Maier M. A., Mol. Ther. 2013, 21, 1570-1578, the content of which is incorporated herein in its entirety) First, the chemical stability of the lipids was evaluated by measuring ethanol stability at room temperature and 37° C. (Table 39). […] LNPs formed with compound 138 were larger, with a surface pKa>7. […] Removal of one ester function (compound 136) afforded LNPs with improved physiochemical characteristics and lower LNP surface pKa.

CCCCCCCCCOC(=O)CCCCCCCN(CCO)CCCCCCCC(=O)OC(CCCCCCCC)CCCCCCCC [Compound 18, Heptadecan-9-yl 8-((2-hydroxyethyl)(8-(nonyloxy)-8-oxooctyl)amino)octanoate]
% dose remaining Mouse liver tissue, 24 h ([1]; CD-1 mouse liver 24 h after 0.5 mg/kg bolus dose mRNA, n = 5 ± S.D.): 0%
original dose remaining in liver tissue 24 hours post dose ([1]; mice, intravenous): no lipid detected
Lipid/MC3 hEPO expression (hEPO mRNA [2]; 2 mpk dose to rat): 0.81
hEPO expression (hEPO mRNA [2]; 6 h, 2 mpk, i.v.): 9.96e+06 pg/mL
hEPO expression 0.25 h (hEPO mRNA [2]; intravenous, 0.2 mpk): 20227 pg/mL
hEPO expression 0.5 h (hEPO mRNA [2]; intravenous, 0.2 mpk): 20743 pg/mL
hEPO expression 1 h (hEPO mRNA [2]; intravenous, 0.2 mpk): 194353 pg/mL
hEPO expression 2 h (hEPO mRNA [2]; intravenous, 0.2 mpk): 238107 pg/mL
hEPO expression 4 h (hEPO mRNA [2]; intravenous, 0.2 mpk): 514807 pg/mL
hEPO expression 8 h (hEPO mRNA [2]; intravenous, 0.2 mpk): 915320 pg/mL
hEPO expression 24 h (hEPO mRNA [2]; intravenous, 0.2 mpk): 412051 pg/mL
hEPO expression 48 h (hEPO mRNA [2]; intravenous, 0.2 mpk): 52361 pg/mL
Lipid/MC3 hEPO conc. ratio 2 mpk (hEPO mRNA [2]; intravenous, 2 mpk, 6 hours): 0.81
IP-10 (IP-10): 517.3 pg/mL
hEPO expression Lipid/MC3 ratio, 6 hr. (hEPO mRNA [3]; 0.5 mpk, 6 hr.): 2.63
hEPO expression Lipid/MC3 ratio, AUC (hEPO mRNA [3]; 0.5 mpk, AUC): 1.88
Lipid Purity ([4]; t = 0): 94.37%
Lipid Purity ([4]; t = 96 h, 25° C.): 94.71%
Lipid Purity ([4]; t = 96 h, 37° C.): 95.01%

CCCCCCCCCCCOC(=O)CCCCCN(CCO)CCCCCCCC(=O)OC(CCCCCCCC)CCCCCCCC [Compound 25, Heptadecan-9-yl 8-((2-hydroxyethyl)(6-oxo-6-(undecyloxy)hexyl)amino)octanoate]
Lipid/MC3 hEPO expression (hEPO mRNA [2]; 0.2 mpk dose to rat): 2.41
Lipid/MC3 hEPO expression (hEPO mRNA [2]; 2 mpk dose to rat): 2.13
hEPO expression (hEPO mRNA [2]; 6 h, 2 mpk, i.v.): 3.05e+07 pg/mL
hEPO expression 0.25 h (hEPO mRNA [2]; intravenous, 0.2 mpk): 0 pg/mL
hEPO expression 0.5 h (hEPO mRNA [2]; intravenous, 0.2 mpk): 19553 pg/mL
hEPO expression 1 h (hEPO mRNA [2]; intravenous, 0.2 mpk): 434299 pg/mL
hEPO expression 2 h (hEPO mRNA [2]; intravenous, 0.2 mpk): 2042807 pg/mL
hEPO expression 4 h (hEPO mRNA [2]; intravenous, 0.2 mpk): 3176560 pg/mL
hEPO expression 8 h (hEPO mRNA [2]; intravenous, 0.2 mpk): 2631633 pg/mL
hEPO expression 24 h (hEPO mRNA [2]; intravenous, 0.2 mpk): 869374 pg/mL
hEPO expression 48 h (hEPO mRNA [2]; intravenous, 0.2 mpk): 103089 pg/mL
Lipid/MC3 hEPO conc. ratio 0.2 mpk (hEPO mRNA [2]; intravenous, 0.2 mpk, 6 hours): 2.41
Lipid/MC3 hEPO conc. ratio 2 mpk (hEPO mRNA [2]; intravenous, 2 mpk, 6 hours): 2.13
IP-10 (IP-10): 533.5 pg/mL
Novel lipid/MC3 expression ratio, 6 hr. time point, s.c. hEPO 0.5 mpk (hEPO mRNA [3]): 5.43
Lipid Purity ([4]; t = 0): 95.58%
Lipid Purity ([4]; t = 96 h, 25° C.): 96.23%
Lipid Purity ([4]; t = 96 h, 37° C.): 96.13%

CCCCCCCCC(C)OC(=O)CCCCCCCN(CCO)CCCCCCCC(=O)OC(CCCCCCCC)CCCCCCCC (centres unmarked) [Compound 48, decan-2-yl 8-((8-(heptadecan-9-yloxy)-8-oxooctyl)(2-hydroxyethyl)amino)octanoate]
Lipid/MC3 hEPO expression (hEPO mRNA [2]; 0.2 mpk dose to rat): 5.39
Lipid/MC3 hEPO expression (hEPO mRNA [2]; 2 mpk dose to rat): 3.84
hEPO expression (hEPO mRNA [2]; intravenous, 0.2 mpk, 6 hours): 4.06e+06 pg/mL
hEPO expression (hEPO mRNA [2]; intravenous, 2 mpk, 6 hours): 3.57e+07 pg/mL
Lipid/MC3 hEPO conc. ratio 0.2 mpk (hEPO mRNA [2]; intravenous, 0.2 mpk, 6 hours): 5.39
Lipid/MC3 hEPO conc. ratio 2 mpk (hEPO mRNA [2]; intravenous, 2 mpk, 6 hours): 3.84
IP-10 induction (IP-10; 0.2 mpk): 134 pg/mL
IP-10 induction (IP-10; 2 mpk): 970 pg/mL
Novel lipid/MC3 expression ratio, 6 hr. time point, s.c. hEPO 0.5 mpk (hEPO mRNA [3]): 8.09

CCCCCCCCC(CC)OC(=O)CCCCCCCN(CCO)CCCCCCCC(=O)OC(CCCCCCCC)CCCCCCCC (centres unmarked) [Compound 49, heptadecan-9-yl 8-((2-hydroxyethyl)(8-oxo-8-(undecan-3-yloxy)octyl)amino)octanoate]
hEPO expression (hEPO mRNA [2]; intravenous, 0.2 mpk, 6 hours): 3.17e+06 pg/mL
hEPO expression (hEPO mRNA [2]; intravenous, 2 mpk, 6 hours): 3.04e+07 pg/mL
Lipid/MC3 hEPO conc. ratio 0.2 mpk (hEPO mRNA [2]; intravenous, 0.2 mpk, 6 hours): 4.13
Lipid/MC3 hEPO conc. ratio 2 mpk (hEPO mRNA [2]; intravenous, 2 mpk, 6 hours): 3.28
IP-10 induction (IP-10; 0.2 mpk): 66 pg/mL
IP-10 induction (IP-10; 2 mpk): 932 pg/mL
Novel lipid/MC3 expression ratio, 6 hr. time point, s.c. hEPO 0.5 mpk (hEPO mRNA [3]): 8.01
